Earlier results, collected in patent US20240299434A1, “URIDINE TRIACETATE AMORPHOUS FORMULATION” (PHARMA CINQ. LLC, priority 2021, published 2024).
Like-named read-outs stand apart in the source and are kept apart here.

Tests used:
[1] = mice
[2] = humans

Row | oral bioavailability [1] | oral bioavailability [2] | SMILES | solubility in water
1 | – | – | CC(=O)OC[C@H]1O[C@@H](n2ccc(=O)[nH]c2=O)[C@H](OC(C)=O)[C@@H]1OC(C)=O [Uridine triacetate, 2′,3′,5′-Tri-O-acetyluridine] | approximately 10 milligrams per milliliter
2 | approximately 7% | approximately 7% | O=c1ccn([C@@H]2O[C@H](CO)[C@@H](O)[C@H]2O)c(=O)[nH]1 [uridine] | –
